Measurements reported in the NIST ThermoML archive (doi:10.1021/je301301j).
Numbers after ± are expanded uncertainties.

Test: xn = mol fraction of the nth substance listed
Settings: Liquid; for mass density: Vibrating tube method; for viscosity: Concentric cylinders viscometry

C=CCCCC [hex-1-ene] + CCCCO
Settings	mass density, 273.15 K [kg/m3]	mass density, 293.15 K [kg/m3]	mass density, 313.15 K [kg/m3]	mass density, 333.15 K [kg/m3]	viscosity, 293.15 K [mPa·s]	viscosity, 303.15 K [mPa·s]	viscosity, 313.15 K [mPa·s]
100 kPa, x1 = 0.1001	808.1 ± 0.7	792.4 ± 0.7	776.5 ± 0.7	759.7 ± 0.7	–	–	–
100 kPa, x1 = 0.3999	764.1 ± 0.7	747 ± 0.7	729.5 ± 0.7	711.1 ± 0.7	–	–	–
100 kPa, x1 = 0.5018	751.4 ± 0.7	734 ± 0.7	716 ± 0.7	697.2 ± 0.7	–	–	–
100 kPa, x1 = 0.5997	739 ± 0.7	721.2 ± 0.7	702.9 ± 0.7	683.7 ± 0.7	–	–	–
100 kPa, x1 = 0.9	700.4 ± 0.7	681.8 ± 0.7	662.7 ± 0.7	642.8 ± 0.7	–	–	–
100 kPa, x1 = 1	691.5 ± 0.7	672.8 ± 0.7	653.8 ± 0.7	634 ± 0.7	–	–	–
100 kPa, x2 = 0	–	–	–	–	0.28 ± 0.007	0.257 ± 0.007	0.236 ± 0.006
100 kPa, x2 = 0.1001	–	–	–	–	0.316 ± 0.008	0.283 ± 0.007	0.255 ± 0.007
100 kPa, x2 = 0.2	–	–	–	–	0.355 ± 0.009	0.316 ± 0.008	0.285 ± 0.007
100 kPa, x2 = 0.3002	–	–	–	–	0.422 ± 0.01	0.369 ± 0.009	0.322 ± 0.008
100 kPa, x2 = 0.3999	–	–	–	–	0.522 ± 0.012	0.448 ± 0.01	0.386 ± 0.009
100 kPa, x2 = 0.5018	–	–	–	–	0.669 ± 0.015	0.565 ± 0.013	0.475 ± 0.011
100 kPa, x2 = 0.5997	–	–	–	–	0.86 ± 0.019	0.703 ± 0.015	0.595 ± 0.013
100 kPa, x2 = 0.7002	–	–	–	–	1.159 ± 0.025	0.938 ± 0.02	0.763 ± 0.017
100 kPa, x2 = 0.7999	–	–	–	–	1.558 ± 0.033	1.24 ± 0.026	0.997 ± 0.021
100 kPa, x2 = 0.9	–	–	–	–	2.125 ± 0.045	1.667 ± 0.035	1.327 ± 0.028
1000 kPa, x1 = 0.1001	808.5 ± 0.7	793.1 ± 0.7	777.2 ± 0.7	760.6 ± 0.7	–	–	–
1000 kPa, x1 = 0.3999	764.6 ± 0.7	747.7 ± 0.7	730.4 ± 0.7	712.2 ± 0.7	–	–	–
1000 kPa, x1 = 0.5018	751.9 ± 0.7	734.8 ± 0.7	716.9 ± 0.7	698.3 ± 0.7	–	–	–
1000 kPa, x1 = 0.5997	739.5 ± 0.7	722 ± 0.7	703.9 ± 0.7	684.9 ± 0.7	–	–	–
1000 kPa, x1 = 0.9	701 ± 0.7	682.7 ± 0.7	663.9 ± 0.7	644.1 ± 0.7	–	–	–
1000 kPa, x1 = 1	692.1 ± 0.7	673.8 ± 0.7	654.9 ± 0.7	635.4 ± 0.7	–	–	–
2000 kPa, x1 = 0.1001	809.3 ± 0.7	793.8 ± 0.7	778.1 ± 0.7	761.6 ± 0.7	–	–	–
2000 kPa, x1 = 0.3999	765.4 ± 0.7	748.6 ± 0.7	731.4 ± 0.7	713.4 ± 0.7	–	–	–
2000 kPa, x1 = 0.5018	752.7 ± 0.7	735.7 ± 0.7	718 ± 0.7	699.6 ± 0.7	–	–	–
2000 kPa, x1 = 0.5997	740.4 ± 0.7	723 ± 0.7	705 ± 0.7	686.3 ± 0.7	–	–	–
2000 kPa, x1 = 0.9	701.9 ± 0.7	683.8 ± 0.7	665.1 ± 0.7	645.6 ± 0.7	–	–	–
2000 kPa, x1 = 1	693 ± 0.7	674.9 ± 0.7	656.2 ± 0.7	636.9 ± 0.7	–	–	–
5000 kPa, x1 = 0.1001	811.3 ± 0.7	796.2 ± 0.7	780.6 ± 0.7	764.5 ± 0.7	–	–	–
5000 kPa, x1 = 0.3999	767.7 ± 0.7	751.2 ± 0.7	734.3 ± 0.7	716.8 ± 0.7	–	–	–
5000 kPa, x1 = 0.5018	755.1 ± 0.7	738.4 ± 0.7	721.1 ± 0.7	703.1 ± 0.7	–	–	–
5000 kPa, x1 = 0.5997	742.8 ± 0.7	725.8 ± 0.7	708.2 ± 0.7	690 ± 0.7	–	–	–
5000 kPa, x1 = 0.9	704.6 ± 0.7	686.9 ± 0.7	668.7 ± 0.7	649.9 ± 0.7	–	–	–
5000 kPa, x1 = 1	695.8 ± 0.7	678 ± 0.7	659.9 ± 0.7	641.3 ± 0.7	–	–	–
10000 kPa, x1 = 0.1001	814.6 ± 0.7	799.7 ± 0.7	784.6 ± 0.7	768.9 ± 0.7	–	–	–
10000 kPa, x1 = 0.3999	771.4 ± 0.7	755.3 ± 0.7	739 ± 0.7	722 ± 0.7	–	–	–
10000 kPa, x1 = 0.5018	758.9 ± 0.7	742.7 ± 0.7	725.9 ± 0.7	708.6 ± 0.8	–	–	–
10000 kPa, x1 = 0.5997	746.7 ± 0.7	730.2 ± 0.7	713.2 ± 0.7	695.7 ± 0.8	–	–	–
10000 kPa, x1 = 0.9	708.8 ± 0.7	691.7 ± 0.8	674.2 ± 0.8	656.3 ± 0.8	–	–	–
10000 kPa, x1 = 1	700 ± 0.8	682.9 ± 0.8	665.5 ± 0.8	647.8 ± 0.8	–	–	–
15000 kPa, x1 = 0.1001	817.8 ± 0.7	803.2 ± 0.7	788.4 ± 0.7	773.1 ± 0.7	–	–	–
15000 kPa, x1 = 0.3999	774.9 ± 0.7	759.2 ± 0.8	743.3 ± 0.8	727.1 ± 0.8	–	–	–
15000 kPa, x1 = 0.5018	762.5 ± 0.7	746.7 ± 0.8	730.5 ± 0.8	713.8 ± 0.8	–	–	–
15000 kPa, x1 = 0.5997	750.4 ± 0.8	734.4 ± 0.8	718 ± 0.8	701.1 ± 0.8	–	–	–
15000 kPa, x1 = 0.9	712.8 ± 0.8	696.2 ± 0.8	679.5 ± 0.8	662.2 ± 0.8	–	–	–
15000 kPa, x1 = 1	704 ± 0.8	687.5 ± 0.8	670.8 ± 0.8	653.9 ± 0.8	–	–	–
20000 kPa, x1 = 0.1001	820.8 ± 0.7	806.5 ± 0.7	792.1 ± 0.8	777.2 ± 0.8	–	–	–
20000 kPa, x1 = 0.3999	778.2 ± 0.8	762.9 ± 0.8	747.5 ± 0.8	731.6 ± 0.8	–	–	–
20000 kPa, x1 = 0.5018	766 ± 0.8	750.5 ± 0.8	734.8 ± 0.8	718.7 ± 0.8	–	–	–
20000 kPa, x1 = 0.5997	754 ± 0.8	738.3 ± 0.8	722.4 ± 0.8	706.1 ± 0.8	–	–	–
20000 kPa, x1 = 0.9	716.5 ± 0.8	700.4 ± 0.8	684.2 ± 0.8	667.8 ± 0.8	–	–	–
20000 kPa, x1 = 1	707.8 ± 0.8	691.8 ± 0.8	675.7 ± 0.8	659.5 ± 0.8	–	–	–
30000 kPa, x1 = 0.1001	826.5 ± 0.8	812.8 ± 0.8	799 ± 0.8	784.7 ± 0.8	–	–	–
30000 kPa, x1 = 0.3999	784.4 ± 0.8	769.9 ± 0.8	755.2 ± 0.8	740.3 ± 0.8	–	–	–
30000 kPa, x1 = 0.5018	772.4 ± 0.8	757.7 ± 0.8	742.7 ± 0.8	728.5 ± 0.8	–	–	–
30000 kPa, x1 = 0.5997	760.6 ± 0.8	745.7 ± 0.8	730.6 ± 0.8	715.4 ± 0.8	–	–	–
30000 kPa, x1 = 0.9	723.6 ± 0.8	708.3 ± 0.8	693.1 ± 0.9	677.7 ± 0.9	–	–	–
30000 kPa, x1 = 1	715 ± 0.8	699.8 ± 0.8	684.6 ± 0.9	669.5 ± 0.9	–	–	–
40000 kPa, x1 = 0.1001	831.9 ± 0.8	818.6 ± 0.8	805.3 ± 0.8	791.6 ± 0.8	–	–	–
40000 kPa, x1 = 0.3999	790.2 ± 0.8	776.3 ± 0.8	762.2 ± 0.8	748 ± 0.9	–	–	–
40000 kPa, x1 = 0.5018	778.4 ± 0.8	764.2 ± 0.8	749.9 ± 0.9	736.5 ± 0.9	–	–	–
40000 kPa, x1 = 0.5997	766.8 ± 0.8	752.4 ± 0.9	738 ± 0.9	723.5 ± 0.9	–	–	–
40000 kPa, x1 = 0.9	730.1 ± 0.9	715.5 ± 0.9	700.9 ± 0.9	686.5 ± 0.9	–	–	–
40000 kPa, x1 = 1	721.6 ± 0.9	707 ± 0.9	692.6 ± 0.9	678.4 ± 0.9	–	–	–
50000 kPa, x1 = 0.1001	837 ± 0.8	824.1 ± 0.8	811.1 ± 0.8	798 ± 0.8	–	–	–
50000 kPa, x1 = 0.3999	795.7 ± 0.8	782.2 ± 0.9	768.7 ± 0.9	755.2 ± 0.9	–	–	–
50000 kPa, x1 = 0.5018	783.9 ± 0.9	770.2 ± 0.9	756.5 ± 0.9	743.8 ± 0.9	–	–	–
50000 kPa, x1 = 0.5997	772.3 ± 0.9	758.6 ± 0.9	744.7 ± 0.9	731 ± 0.9	–	–	–
50000 kPa, x1 = 0.9	736.1 ± 0.9	722.1 ± 0.9	708.2 ± 1	694.4 ± 1	–	–	–
50000 kPa, x1 = 1	727.6 ± 0.9	713.7 ± 1	699.9 ± 1	686.3 ± 1	–	–	–
60000 kPa, x1 = 1	733.2 ± 1	719.9 ± 1	706.9 ± 1	693.7 ± 1.1	–	–	–
70000 kPa, x1 = 1	738.7 ± 1	725.8 ± 1.1	713 ± 1.1	700.5 ± 1.1	–	–	–
